Test results as given in patent US9499570B2, “Boron containing small molecules” (priority 2010, dated 2016).
“Also recorded” adds a separate entry of the source.

System: Schistosoma mansoni schistosomula
Assay: Schistosoma mansoni schistosomula phenotype screen in vitro
Conditions: First Set
Description: Puerto Rican isolates of S. mansoni using Biomphalaria glabrata snails and golden hamsters as intermediate and definitive hosts, respectively, were maintained and handled in the University of California-San Francisco Sandler Center for Tropical Medicine. Patent B. glabrata snails (6-8 weeks after exposure to 5-10 infectious miracidia) were induced to shed infective larvae (cercariae) under light stimulus into the surrounding water. Cercariae were washed in rounds of ice-cold water and concentrated through and over sieves of varying pore sizes. They were then mechanically sheared (separation of heads from tails) as described in Colley D G, et al. Exp Parasitol 1974, 35:44-51, in ice-cold Incomplete Medium 169 (as described in Basch P F. J Parasitol 1981, 67:179-185, minus FBS and antibiotics) by passing 15 times through a double headed 22-gauge syringe needle connected to two 10 mL syringes. The resulting cercarial heads (schistosomula) were separated from their tails by swirling in a petri dish. Concentrated schistosomula were added to a sterile 1.5 mL centrifuge tube and allowed to settle over ice. Schistosomula were transferred to a sterile environment and washed 4 times in Incomplete Medium 169 prior to plating.
Two sets of screening were performed. In the first set, compounds were screened against schistosomula and observations were made at 24 hours, 2 days, 3 days, 4 days, and 6 days. In the second set, compounds were screened against schistosomula with observations at 24 hours, 2 days, 3 days, and 4 days and adult worms at 7 hours, 24 hours, 4 days, and 6 days.
Plates contain 200 schistosomula/well in […] complete Basch medium and were maintained at 37° C. in a 5% CO2 atmosphere. All compounds were tested in duplicate with at least two experimental replicates. Compounds and control compounds were added to the plates using the Biomek FXp using 96-well disposable tips. Final concentration of DMSO in each well was 0.5%.
A semi-quantitative and controlled nomenclature for phenotypes that can arise as a result of compound insult to both schistosomula and adults was utilized (Abdulla M H, et al., PLoS Negl Trop Dis 2009, 3:e478). Phenotypes were recorded by visual inspection and on a flexible time basis but at least at 24 h and 4 day time-points in the case of large scale screening. […] To help eliminate bias, two screen analysts scored phenotypes ‘blind’ both to knowledge of the contents of each screening plate and the phenotypes scored by his/her colleague. Upon completing their individual assessments, each analyst's ‘hit sheet’ was then compared to derive a ‘consensus hit sheet’. Discrepancies in analysts' hit sheets were re-evaluated under the microscope to eventually make a consensus hit call.
Hyper-coiled and coiled represent a verbal description of the visual phenotype as compared to the DMSO control. The + and ++ and +++ means more of the phenotype which preceded it. The − means less of the phenotype which preceded it. Results

Compound	Schistosomula phenotype day 6	Schistosomula phenotype day 3	further results
COCCNc1ccc(C#N)c(Oc2ccc3c(c2)COB3O)n1 [2-(1-Hydroxy-1,3-dihydro-benzo[c][1,2]oxaborol-5-yloxy)-6-(2-methoxy-ethylamino)-nicotinonitrile]	O+ R and Partial D (Partial D=partial killing of worm population)		
N#Cc1ccc(Oc2ccc3c(c2)COB3O)nc1OCC(F)F [2-(2,2-Difluoro-ethoxy)-6-(1-hydroxy-1,3-dihydro-benzo[c][1,2]oxaborol-5-yloxy)-nicotinonitrile]	R O+ and Partial D (Partial D=partial killing of worm population)	O+ and Deg-M (Deg-M=worms in morphological disarray but still living)	
N#Cc1ccc(Oc2ccc3c(c2)COB3O)nc1NCCOCc1ccccc1 [2-(2-Benzyloxy-ethylamino)-6-(1-hydroxy-1,3-dihydro-benzo[c][1,2]oxaborol-5-yloxy)-nicotinonitrile]	R O+ and Partial D (Partial D=partial killing of worm population)	O+ and Deg-M (Deg-M=worms in morphological disarray but still living)	Schistosomula phenotype 24 h: O+ and some and deg-M
Cl.N#Cc1ccc(Oc2ccc3c(c2)COB3O)c(OCc2ccccn2)c1 [2-((5-Cyano-2-(1-hydroxy-1,3-dihydrobenzo[c][1,2]oxaborol-5-yloxy)phenoxy)methyl)pyridine hydrochloride]			Schistosomula phenotype 24 h (hydrochloride): R (R=round) and O++; Schistosomula phenotype day 2 (hydrochloride): O+, and M−; Schistosomula phenotype day 4 (hydrochloride): O+, and Partial D (Partial D=partial killing of worm population); Schistosomula phenotype day 6 (hydrochloride): O+, and Partial and D, R
N#Cc1ccc(Oc2ccc3c(c2)COB3O)nc1NCc1ccccc1 [2-Benzylamino-6-(1-hydroxy-1,3-dihydro-benzo[c][1,2]oxaborol-5-yloxy)-nicotinonitrile]	R O and Partial D (Partial D=partial killing of worm population)		Schistosomula phenotype 24 h: O++ and some and deg-M
CCOc1nc(Oc2ccc3c(c2)COB3O)ccc1C#N [2-Ethoxy-6-(1-hydroxy-1,3-dihydro-benzo[c][1,2]oxaborol-5-yloxy)-nicotinonitrile]	O+ R and Partial D (Partial D=partial killing of worm population)	O+ and partial D	
N#Cc1ccc(Oc2ccc3c(c2)COB3O)c(OCC2CCCC2)c1 [3-(Cyclopentylmethoxy)-4-(1-hydroxy-1,3-dihydrobenzo[c][1,2]oxaborol-5-yloxy)benzonitrile]			Schistosomula phenotype day 4: R O− and Deg-M D
N#Cc1ccc(Oc2ccc3c(c2)COB3O)c(OC2CCCC2)c1 [3-(Cyclopentyloxy)-4-(1-hydroxy-1,3-dihydrobenzo[c][1,2]oxaborol-5-yloxy)benzonitrile]	R deg- and M D	O+ and Partial D (Partial D=partial killing of worm population)	Schistosomula phenotype 24 h: O++ and deg-M
N#Cc1ccc(Oc2ccc3c(c2)COB3O)c(OCC2CC2)c1 [3-(Cyclopropylmethoxy)-4-(1-hydroxy-1,3-dihydrobenzo[c][1,2]oxaborol-5-yloxy)benzonitrile]		O+ and partial D	
COCCOc1nccc(Oc2ccc3c(c2)COB3O)c1C#N [4-(1-Hydroxy-1,3-dihydro-benzo[c][1,2]oxaborol-5-yloxy)-2-(2-methoxyethoxy)-nicotinonitrile]	O+ R and Partial D (Partial D=partial killing of worm population)	O+ and some and partial D	Schistosomula phenotype 24 h: R (R=round) and O+
CC(C)OC(=O)c1ccc(Oc2ccc3c(c2)COB3O)c(F)c1 [5-(2-Fluoro-4-isopropyloxycarbonylphenoxy)-1-hydroxy-2,1-benzoxaborole]			Schistosomula phenotype day 4: O−, R
N#Cc1ccc(Oc2ccc3c(c2)COB3O)cc1C(F)(F)F [5-(4-Cyano-3-trifluoromethylphenoxy)-1,3-dihydro-1-hydroxy-2,1-benzoxaborole]	O, (O=overactive) and some and deg-m		Schistosomula phenotype day 2: O−, and deg-m−; Schistosomula phenotype day 4: O, (O=overactive) and some and deg-m
CCOC(=O)c1ccc(Oc2ccc3c(c2)COB3O)c(Oc2cc(C#N)ccn2)c1 [5-[4-Ethoxycarbonyl-2-(4-cyanopyridin-2-yloxy)phenoxy]-1,3-dihydro-1-hydroxy-2,1-benzoxaborole]	R, O,; also recorded: Partial D (Partial D=partial killing of worm population)		Schistosomula phenotype day 2: O, (O=overactive); also recorded: deg-m; Schistosomula phenotype day 4: O, (O=overactive) and some and deg-m
N#Cc1ccc(Oc2ccc3c(c2)COB3O)nc1OCC(F)(F)F [6-(1-Hydroxy-1,3-dihydro-benzo[c][1,2]oxaborol-5-yloxy)-2-(2,2,2-trifluoro-ethoxy)-nicotinonitrile]	O+ R and Partial D (Partial D=partial killing of worm population)		
COCCNc1nc(Oc2ccc3c(c2)COB3O)ccc1C#N [6-(1-Hydroxy-1,3-dihydro-benzo[c][1,2]oxaborol-5-yloxy)-2-(2-methoxy-ethylamino)-nicotinonitrile]	R O and some and partial D		
CC(=O)OCCOc1nc(Oc2ccc3c(c2)COB3O)ccc1C#N [6-(1-Hydroxy-1,3-dihydro-benzo[c][1,2]oxaborol-5-yloxy)-2-(acetyloxyethoxy)-nicotinonitrile]	R O+ and Partial D (Partial D=partial killing of worm population)	O+ and partial D	
CC(C)COc1nc(Oc2ccc3c(c2)COB3O)ccc1C#N [6-(1-Hydroxy-1,3-dihydro-benzo[c][1,2]oxaborol-5-yloxy)-2-isobutoxy-nicotinonitrile]			Schistosomula phenotype 24 h: R− and O−; Schistosomula phenotype day 4: R (R=round) and O−
CC(C)Oc1nc(Oc2ccc3c(c2)COB3O)ccc1C#N [6-(1-Hydroxy-1,3-dihydro-benzo[c][1,2]oxaborol-5-yloxy)-2-isopropoxy-nicotinonitrile]	R O+ and Partial D (Partial D=partial killing of worm population)	O+ and Deg-M (Deg-M=worms in morphological disarray but still living)	
CCCOc1nc(Oc2ccc3c(c2)COB3O)ccc1C#N [6-(1-Hydroxy-1,3-dihydro-benzo[c][1,2]oxaborol-5-yloxy)-2-propoxy-nicotinonitrile]	R O and partial D	O+ and Deg-M (Deg-M=worms in morphological disarray but still living)	
N#Cc1ccc(Oc2ccc3c(c2)COB3O)nc1N1CCCC1 [6-(1-Hydroxy-1,3-dihydro-benzo[c][1,2]oxaborol-5-yloxy)-2-pyrrolidin-1-yl-nicotinonitrile]	R O and Partial D (Partial D=partial killing of worm population)	O+ and Deg-M (Deg-M=worms in morphological disarray but still living)	
N#Cc1cnc(Oc2ccc3c(c2)COB3O)cc1OCCOC1CCCCO1 (stereo not shown) [6-(1-Hydroxy-1,3-dihydro-benzo[c][1,2]oxaborol-5-yloxy)-4-[2-(tetrahydro-pyran-2-yloxy)-ethoxy]-nicotinonitrile]	Deg-M D	O++ and deg-M	Schistosomula phenotype 24 h: O++ and deg-M
COCCN(C)c1nc(Oc2ccc3c(c2)COB3O)ccc1C#N [6-(1-hydroxy-1,3-dihydro-benzo[c][1,2]oxaborol-5-yloxy)-2-[(2-methoxy-ethyl)-methyl-amino]-nicotinonitrile]	R O and Partial D (Partial D=partial killing of worm population)	O+ and Deg-M (Deg-M=worms in morphological disarray but still living)	
